Source: patent US11976300B2, “Use of water-soluble realgar solid dispersion in preparation of erythroid differentiation inducer for bone marrow hematopoietic stem cells and/or bone marrow hematopoietic progenitor cells” (Institute of Basic Medical Sciences Chinese Academy of …, priority 2018, dated 2024)

Experiment: Evaluation of water solubility (appearance of water dispersion)
Type: physicochemical
Conditions: 1.500 g e-As4S4 of Embodiment 5 or 100 mg r-As4S4 powder in 10 mL ddH2O; FIG. 1
Procedure: 1.500 grams of e-As4S4 of Embodiment 5 and 100 mg of the r-As4S4 powder were weighed and added in 10 mL of double distilled water (ddH2O), respectively to obtain the water dispersion solution of e-As4S4 and r-As4S4.

S1[As]2S[As]3S[As]2S[As]13 [r-As4S4, As4S4]
dissolution in ddH2O (appearance of the suspension): hardly to dissolve in water
